The values below come from patent US11173151B2, “Substituted triazole derivatives and uses thereof” (BAYER AKTIENGESELLSCHAFT, priority 2017, dated 2021).

What is called IC50 is the concentration that gives 50% inhibition.

Each structure is given as a SMILES string. Like-named read-outs stand apart in the source and are kept apart here.

The target of assay [1] is T1, human V1a receptor (Homo sapiens, UniProt P37288).
T1 construct: expressed in transfected cells; host or cells: CHO K1 (ATCC), also stably transfected with a modified aequorin
As to the kind of experiment: Cellular in vitro assay for determining vasopressin receptor activity, V1a receptor cell line (CHO, aequorin luminescence). Format: cell-based. The settings on record: for IC50: CHO cell line transfected with human V1a receptor, [Arg]-vasopressin at EC50 concentration, read-out: IC50 hV1a; for ratio IC50 hV2/hV1a: selectivity ratio IC50 hV2 / IC50 hV1a. In short, it runs like this:
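IC50 from inhibition of [Arg]-vasopressin (EC50 concentration)-evoked aequorin luminescence in CHO K1 cells, with 10-min compound pretreatment.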

The target of assay [2] is T2, human V2 receptor (Homo sapiens, UniProt P30518).
T2 construct: expressed in transfected cells; host or cells: CHO K1 (ATCC) expressing firefly luciferase under a CRE-responsive promoter
As to the kind of experiment: Cellular in vitro assay for determining vasopressin receptor activity, V2 receptor cell line (CHO, CRE-luciferase). Format: cell-based. The settings on record: CHO cell line transfected with human V2 receptor, [Arg8]-vasopressin at EC50 concentration, read-out: IC50 hV2.

T2 sequence (P30518 whole entry): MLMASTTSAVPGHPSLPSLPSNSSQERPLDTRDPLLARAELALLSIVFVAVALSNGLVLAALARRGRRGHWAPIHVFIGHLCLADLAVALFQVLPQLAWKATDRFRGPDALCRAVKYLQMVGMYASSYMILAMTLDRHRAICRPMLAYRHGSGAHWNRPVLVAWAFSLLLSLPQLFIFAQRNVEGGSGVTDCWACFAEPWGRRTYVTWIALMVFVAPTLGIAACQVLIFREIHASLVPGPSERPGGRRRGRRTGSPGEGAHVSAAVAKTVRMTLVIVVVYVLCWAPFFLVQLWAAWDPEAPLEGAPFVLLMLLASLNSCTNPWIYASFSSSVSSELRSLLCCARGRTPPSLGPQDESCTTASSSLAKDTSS
T1 sequence (P37288 whole entry): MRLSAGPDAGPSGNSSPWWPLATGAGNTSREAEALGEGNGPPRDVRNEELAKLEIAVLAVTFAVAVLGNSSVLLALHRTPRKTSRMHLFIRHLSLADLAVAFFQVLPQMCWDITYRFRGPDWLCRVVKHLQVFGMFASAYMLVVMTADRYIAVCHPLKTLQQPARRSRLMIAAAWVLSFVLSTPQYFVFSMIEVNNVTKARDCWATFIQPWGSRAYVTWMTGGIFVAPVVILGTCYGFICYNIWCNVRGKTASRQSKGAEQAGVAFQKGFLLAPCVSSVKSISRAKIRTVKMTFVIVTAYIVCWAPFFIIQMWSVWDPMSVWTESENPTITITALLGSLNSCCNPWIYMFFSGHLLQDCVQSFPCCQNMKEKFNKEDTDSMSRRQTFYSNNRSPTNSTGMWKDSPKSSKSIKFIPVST

For `COCC1CCCN1C(=O)c1cccnc1-n1nc(Cn2nc(-c3ccc(Cl)cc3)n(C[C@H](O)C(F)(F)F)c2=O)nc1C(=O)N1CCS(=O)(=O)CC1` (mixture of isomers) [Example 532, 5-(4-Chlorophenyl)-2-({5-[(1,1-dioxidothiomorpholin-4-yl)carbonyl]-1-(3-{[2-(methoxymethyl)pyrrolidin-1-yl]carbonyl}pyridin-2-yl)-1H-1,2,4-triazol-3-yl}methyl)-4-[(2S)-3,3,3-trifluoro-2-hydroxypropyl]-2,4-dihydro-3H-1,2,4-triazol-3-one], in assay [1], the IC50 came to 275 nM and the “ratio IC50 hV2/hV1a” value came to 17.6. Also, in assay [2], the IC50 amounted to 4850 nM.
Taken in the same sequence, the figures for `COCC1CCCN1C(=O)c1ccncc1-n1nc(Cn2nc(-c3ccc(Cl)cc3)n(C[C@H](O)C(F)(F)F)c2=O)nc1C(=O)NCC(C)(C)N` (mixture of isomers) [Example 536, N-(2-amino-2-methylpropyl)-3-({3-(4-chlorophenyl)-5-oxo-4-[(2S)-3,3,3-trifluoro-2-hydroxypropyl]-4,5-dihydro-1H-1,2,4-triazol-1-yl}methyl)-1-(4-{[2-(methoxymethyl)pyrrolidin-1-yl]carbonyl}pyridin-3-yl)-1H-1,2,4-triazol-5-carboxamide] were 280 nM, 297.6 and 83300 nM.
`O=C(Nc1cccnc1-n1cnc(Cn2nc(-c3ccc(Cl)cc3)n(C[C@H](O)C(F)(F)F)c2=O)n1)[C@@H]1C[C@@H]1C(F)(F)F` (racemic) [Example 45, N-{2-[3-({3-(4-Chlorophenyl)-5-oxo-4-[(2S)-3,3,3-trifluoro-2-hydroxypropyl]-4,5-dihydro-1H-1,2,4-triazol-1-yl}methyl)-1H-1,2,4-triazol-1-yl]pyridin-3-yl}-2-(trifluoromethyl)cyclopropanecarboxamide]: in assay [1], the IC50 came to 33 nM and the “ratio IC50 hV2/hV1a” value was determined as 21.0. The IC50 in assay [2] (3 hours) came out at 693 nM.
For `O=C(Nc1ncccc1-n1cnc(Cn2nc(-c3ccc(Cl)cc3)n(C[C@H](O)C(F)(F)F)c2=O)n1)[C@@H]1C[C@@H]1F` (racemic) [Example 76, N-{3-[3-({3-(4-Chlorophenyl)-5-oxo-4-[(2S)-3,3,3-trifluoro-2-hydroxypropyl]-4,5-dihydro-1H-1,2,4-triazol-1-yl}methyl)-1H-1,2,4-triazol-1-yl]pyridin-2-yl}-2-fluorocyclopropanecarboxamide] the same measures were 6.45 nM, 362.4 and 2340 nM.
For `O=C(Nc1ncccc1-n1cnc(Cn2nc(-c3ccc(Cl)cc3)n(C[C@H](O)C(F)(F)F)c2=O)n1)[C@@H]1C[C@@H]1C(F)(F)F` (racemic) [Example 79, N-{3-[3-({3-(4-Chlorophenyl)-5-oxo-4-[(2S)-3,3,3-trifluoro-2-hydroxypropyl]-4,5-dihydro-1H-1,2,4-triazol-1-yl}methyl)-1H-1,2,4-triazol-1-yl]pyridin-2-yl}-2-(trifluoromethyl)cyclopropanecarboxamide] the same measures were 102 nM, 102.9 and 10500 nM.
For `O=C(Nc1ncccc1-n1cnc(Cn2nc(-c3ccc(Cl)cc3)n(C[C@H](O)C(F)(F)F)c2=O)n1)[C@H]1C[C@@H]1F` (racemic) [Example 84, N-{3-[3-({3-(4-Chlorophenyl)-5-oxo-4-[(2S)-3,3,3-trifluoro-2-hydroxypropyl]-4,5-dihydro-1H-1,2,4-triazol-1-yl}methyl)-1H-1,2,4-triazol-1-yl]pyridin-2-yl}-2-fluorocyclopropanecarboxamide] the same measures were 9.95 nM, 321.6 and 3200 nM.
Turning to `O=C(N[C@H]1C[C@H]1F)c1cccc(Cl)c1-n1cnc(Cn2nc(-c3ccc(Cl)cc3)n(C[C@H](O)C(F)(F)F)c2=O)n1` (racemic) [Example 389, 3-Chloro-2-[3-({3-(4-chlorophenyl)-5-oxo-4-[(2S)-3,3,3-trifluoro-2-hydroxypropyl]-4,5-dihydro-1H-1,2,4-triazol-1-yl}methyl)-1H-1,2,4-triazol-1-yl]-N-[2-fluorocyclopropyl]benzamide], in assay [1], the IC50 is 2.65 nM and the “ratio IC50 hV2/hV1a” value is recorded as 315.1. Moreover, the IC50 in assay [2] (3 hours) worked out at 835 nM.
For `O=C(N[C@H]1C[C@H]1F)c1cccc(Cl)c1-n1cnc(Cn2nc(-c3ccc(Cl)cc3)n(C[C@@H](O)C(F)(F)F)c2=O)n1` (racemic) [Example 397, 3-Chloro-2-[3-({3-(4-chlorophenyl)-5-oxo-4-[(2R)-3,3,3-trifluoro-2-hydroxypropyl]-4,5-dihydro-1H-1,2,4-triazol-1-yl}methyl)-1H-1,2,4-triazol-1-yl]-N-[2-fluorocyclopropyl]benzamide] the same measures were 72 nM, 96.5 and 6950 nM.
As for `O=C(N[C@@H]1C[C@@H]1F)c1cccc(C(F)(F)F)c1-n1cnc(Cn2nc(-c3ccc(Cl)cc3)n(C[C@H](O)C(F)(F)F)c2=O)n1` (racemic) [Example 413, 2-[3-({3-(4-Chlorophenyl)-5-oxo-4-[(2S)-3,3,3-trifluoro-2-hydroxypropyl]-4,5-dihydro-1H-1,2,4-triazol-1-yl}methyl)-1H-1,2,4-triazol-1-yl]-N-[2-fluorocyclopropyl]-3-(trifluoromethyl)benzamide], in assay [1], the half-inhibitory concentration (IC50) is 34.5 nM and the “ratio IC50 hV2/hV1a” value was 59.4. In addition, the IC50 in assay [2] was 2050 nM.
Taken in the same sequence, the figures for `O=C(N[C@H]1C[C@@H]1F)c1cccc(C(F)(F)F)c1-n1cnc(Cn2nc(-c3ccc(Cl)cc3)n(C[C@H](O)C(F)(F)F)c2=O)n1` (racemic) [Example 422, 2-[3-({3-(4-Chlorophenyl)-5-oxo-4-[(2S)-3,3,3-trifluoro-2-hydroxypropyl]-4,5-dihydro-1H-1,2,4-triazol-1-yl}methyl)-1H-1,2,4-triazol-1-yl]-N-[2-fluorocyclopropyl]-3-(trifluoromethyl)benzamide] were 30 nM, 93.3 and 2800 nM.
Taken in the same sequence, the figures for `O=C(N[C@H]1C[C@H]1F)c1ncccc1-n1cnc(Cn2nc(-c3ccc(Cl)cc3)n(C[C@H](O)C(F)(F)F)c2=O)n1` (racemic) [Example 435, 3-[3-({3-(4-Chlorophenyl)-5-oxo-4-[(2S)-3,3,3-trifluoro-2-hydroxypropyl]-4,5-dihydro-1H-1,2,4-triazol-1-yl}methyl)-1H-1,2,4-triazol-1-yl]-N-[2-fluorocyclopropyl]pyridine-2-carboxamide] were 24.5 nM, 43.5 and 1060 nM.
For `O=C(N[C@H]1C[C@H]1F)c1ncccc1-n1cnc(Cn2nc(-c3ccc(Cl)cc3)n(C[C@H](O)C(F)(F)F)c2=O)n1` (racemic) [Example 456, 3-[3-({3-(4-Chlorophenyl)-5-oxo-4-[(2S)-3,3,3-trifluoro-2-hydroxypropyl]-4,5-dihydro-1H-1,2,4-triazol-1-yl}methyl)-1H-1,2,4-triazol-1-yl]-N-[2-fluorocyclopropyl]pyridine-2-carboxamide] the same measures were 12 nM, 65.4 and 785 nM.
